Test results taken from patent publication US20230295201A1 (Gilead Sciences, Inc., priority 2020, published 2023).
Where two headings read alike, the source gives them in different places.

Tests used:
RSV A2 = experiment: RSV NHBE EC50 (RSV A2 antiviral assay in normal human bronchial epithelial cells); assay type: cell-based; conditions: read-out: RSV NHBE EC50
Description: Normal human bronchial epithelial (NHBE) cells were purchased from Lonza (Walkersville, MD, Cat #CC-2540) and cultured in Bronchial Epithelial Growth Media (BEGM) (Lonza, Walkersville, MD, Cat #CC-3170). The cells were passaged 1-2 times per week to maintain <80% confluency. The NHBE cells were discarded after 6 passages in culture.
To conduct the RSV A2 antiviral assay, NHBE cells were plated in 96-well plates at a density of 7,500 cells per well in BEGM and allowed to attach overnight at 37° C. Following attachment, 100 μL of cell culture media was removed and 3-fold serially diluted compound was added using a Hewlett-Packard D300 Digital Dispenser. The final concentration of DMSO was normalized to 0.05%. Following compound addition, the NHBE cells were infected by the addition of 100 μL of RSV A2 at a titer of 1×10^4.5 tissue culture infectious doses/mL in BEGM and then incubated at 37° C. for 4 days. […] The mixtures were incubated for 10 minutes at 25° C., and the luminescence signal was quantified on an Envision luminescence plate reader.

RSV strain A2 = experiment: RSV HEp-2 EC50 (infectious cytopathic cell protection assay); assay type: cell-based; conditions: read-out: RSV HEp-2 EC50
Description: Antiviral activity against RSV is determined using an infectious cytopathic cell protection assay in HEp-2 cells. In this assay, compounds inhibiting viral infection and/or replication produce a cytoprotective effect against the virus-induced cell killing that can be quantified using a cell viability reagent. The techniques used here are novel adaptations of methods described in published literature (Chapman et al., Antimicrob Agents Chemother. 2007, 51(9):3346-53.)
HEp-2 cells are obtained from ATCC (Manassas, VI) and maintained in MEM media supplemented with 10% fetal bovine serum and penicillin/streptomycin. Cells are passaged twice a week and kept at subconfluent stage. Commercial stock of RSV strain A2 (Advanced Biotechnologies, Columbia, MD) is titered before compound testing to determine the appropriate dilution of the virus stock that generates desirable cytopathic effect in HEp-2 cells.
For antiviral tests, HEp-2 cells are grown in large cell culture flasks to near confluency but not fully so. The compounds to be tested are prediluted in DMSO in 384-well compound dilution plates, either in an 8 or 40 sample per plate standardized dose response format. 3-fold serial dilution increments of each test compound are prepared in the plates and test samples are transferred via acoustic transfer apparatus (Echo, Labcyte) at 100 nL per well into cell culture assay 384-well plates. Each compound dilution is transferred in single or quadruplicate samples into dry assay plates, which are stored until assay is ready to go. The positive and negative controls are laid out in opposite on ends of the plate in vertical blocks (1 column).
Subsequently, an infectious mixture is prepared using an appropriate dilution of virus stock previously determined by titration with cells at a density of 50,000/ml and 20 µL/well is added to test plates w/compounds via automation (uFlow, Biotek). Each plate includes negative and positive controls (16 replicates each) to create 0% and 100% virus inhibition standards, respectively. Following the infection with RSV, testing plates are incubated for 4 days in a 37° C. cell culture incubator. After the incubation, a cell viability reagent, Cell TiterGlo (Promega, Madison, WI) is added to the assay plates, which are incubated briefly, and a luminescent readout is measured (Envision, Perkin Elmer) in all the assay plates. The RSV-induced cytopathic effect, percentage inhibition, is determined from the levels of remaining cell viability. […] Various potent anti-RSV tool compounds are used as positive controls for antiviral activity.

[1] = human respiratory syncytial virus, NHBE, 96 h, NHBE cells, RSV A2, 4 days
[2] = human respiratory syncytial virus, HEp-2, 96 h, HEp-2 cells, RSV A2, 4 days
[3] = human respiratory syncytial virus, NHBE, 96 h
[4] = human respiratory syncytial virus, 96 h, HEp-2 cells, RSV A2, 4 days
[5] = human respiratory syncytial virus, 96 h, NHBE cells, RSV A2, 4 days

SMILES	EC50 (RSV strain A2; [2])	EC50 (RSV strain A2; HEp-2 cells, RSV A2, 4 days)	EC50 (RSV A2; NHBE cells, RSV A2, 4 days)	other results
COCCCOC(=O)[C@H](C)NP(=O)(OC[C@@]1(C#N)O[C@@H](c2ccc3c(N)ncnn23)[C@H](O)[C@@H]1O)Oc1ccccc1 (mixture of isomers) [Example 58, 3-Methoxypropyl ((((2R,3S,4R,5S)-5-(4-aminopyrrolo[2,1-f][1,2,4]triazin-7-yl)-2-cyano-3,4-dihydroxytetrahydrofuran-2-yl)methoxy)(phenoxy)phosphoryl)-L-alaninate]	–	–	–	EC50 (RSV A2; [1]): 917 nM
C[C@H](NP(=O)(OC[C@@]1(C#N)O[C@@H](c2ccc3c(N)ncnn23)[C@H](O)[C@@H]1O)Oc1ccccc1)C(=O)O[C@H]1CCOC1 (mixture of isomers) [Example 64, (S)-Tetrahydrofuran-3-yl ((((2R,3S,4R,5S)-5-(4-aminopyrrolo[2,1-f][1,2,4]triazin-7-yl)-2-cyano-3,4-dihydroxytetrahydrofuran-2-yl)methoxy)(phenoxy)phosphoryl)-L-alaninate]	350 nM	–	–	EC50 (RSV A2; [1]): 3500 nM
CCC(CC)COC(=O)[C@H](CC(C)C)NP(=O)(OC[C@@]1(C#N)O[C@@H](c2ccc3c(N)ncnn23)[C@H](O)[C@@H]1O)Oc1ccccc1 (mixture of isomers) [Example 127, (2S)-2-ethylbutyl 2-(((((2R,3S,4R,5S)-5-(4-aminopyrrolo[2,1-f][1,2,4]triazin-7-yl)-2-cyano-3,4-dihydroxytetrahydrofuran-2-yl)methoxy)(phenoxy)phosphoryl)amino)-4-methylpentanoate]	1730 nM	–	–	EC50 (RSV A2; [1]): 434 nM
CC(C)(C)C(=O)OCCNP(=O)(OCC1(C#N)OC(c2ccc3c(N)ncnn23)C(O)C1O)Oc1ccccc1 (single isomer, unassigned) [Example 13]	–	93 nM	30 nM	–
C[C@H](N[P@@](=O)(OC[C@@]1(C#N)O[C@@H](c2ccc3c(N)ncnn23)[C@H](O)[C@@H]1O)Oc1ccccc1)C(=O)O[C@H]1CC[C@H](C(C)(C)C)CC1 (single isomer, unassigned) [Example 23]	207 nM	–	–	EC50 (RSV A2; [1]): 34 nM
COC(=O)[C@H](C)NP(=O)(OC[C@@]1(C#N)O[C@@H](c2ccc3c(N)ncnn23)[C@H](O)[C@@H]1O)Oc1ccc(C[C@H](N)C(=O)OC)cc1 (single isomer, unassigned) [Example 63]	–	4070 nM	> 5000 nM	–
CCOCCOCCOC(=O)[C@H](C)NP(=O)(OC[C@@]1(C#N)O[C@@H](c2ccc3c(N)ncnn23)[C@H](O)[C@@H]1O)Oc1ccccc1 (single isomer, unassigned) [Example 75]	1260 nM	–	–	–
CCC(CC)COC(=O)[C@@H](C)NP(=O)(OC[C@@]1(C#N)O[C@@H](c2ccc3c(N)ncnn23)[C@H](O)[C@@H]1O)Oc1ccccc1 (single isomer, unassigned) [Example 83]	–	5300 nM	953 nM	–
CC[C@H](NP(=O)(OC[C@@]1(C#N)O[C@@H](c2ccc3c(N)ncnn23)[C@H](O)[C@@H]1O)Oc1ccccc1)C(=O)OC1CCCC1 (single isomer, unassigned) [Example 110]	–	281 nM	339 nM	–
CCC(CC)COC(=O)[C@H](CC(C)C)NP(=O)(OC[C@@]1(C#N)O[C@@H](c2ccc3c(N)ncnn23)[C@H](O)[C@@H]1O)Oc1ccccc1 (single isomer, unassigned) [Example 128]	–	1870 nM	164 nM	–
C[C@H](NP(=O)(OC[C@@]1(C#N)O[C@@H](c2ccc3c(N)ncnn23)[C@H](O)[C@@H]1O)Oc1ccccc1)C(=O)O[C@H]1CC[C@@H](C(F)(F)F)CC1 (single isomer, unassigned) [Example 179]	–	591 nM	> 4800 nM	–
C[C@H](NP(=O)(OC[C@@]1(C#N)O[C@@H](c2ccc3c(N)ncnn23)[C@H](O)[C@@H]1O)Oc1ccccc1)C(=O)OCC(C)(C)C(F)(F)F (single isomer, unassigned) [Example 261]	34 nM	–	–	–
CCOC(=O)[C@H](C)NP(=O)(OC[C@@]1(C#N)O[C@@H](c2ccc3c(N)ncnn23)[C@H](O)[C@@H]1O)Oc1ccc(C(C)(C)C)cc1 (single isomer, unassigned) [Example 264]	–	41 nM	–	–
COC(=O)[C@H](C)NP(=S)(OC[C@@]1(C#N)O[C@@H](c2ccc3c(N)ncnn23)[C@H](O)[C@@H]1O)Oc1ccccc1 (stereo partly drawn) [Example 71, methyl ((((2R,3S,4R,5S)-5-(4-aminopyrrolo[2,1-f][1,2,4]triazin-7-yl)-2-cyano-3,4-dihydroxytetrahydrofuran-2-yl)methoxy)(phenoxy)phosphorothioyl)-L-alaninate]	–	–	–	EC50 (RSV strain A2; human respiratory syncytial virus, HEp-2, 96 h): 3140 nM; EC50 (RSV A2; [3]): > 5000 nM
C[C@H](N[P@@](=O)(OC[C@@]1(C#N)O[C@@H](c2ccc3c(N)ncnn23)[C@H](O)[C@@H]1O)Oc1ccccc1)C(=O)OCC(C)(C)C [Example 93]	–	2840 nM	85 nM	–
C[C@H](NP(=O)(OC[C@@]1(C#N)O[C@@H](c2ccc3c(N)ncnn23)[C@H](O)[C@@H]1O)Oc1ccccc1)C(=O)NC1CCCCC1 (stereo partly drawn) [Example 138, ((2R,3S,4R,5S)-5-(4-aminopyrrolo[2,1-f][1,2,4]triazin-7-yl)-2-cyano-3,4-dihydroxytetrahydrofuran-2-yl)methyl phenyl ((S)-1-(cyclohexylamino)-1-oxopropan-2-yl)phosphoramidate]	38500 nM	–	–	EC50 (RSV A2; [1]): > 5000 nM
CC1CCC(OC(=O)C(C)NP(=O)(OCC2(C#N)OC(c3ccc4c(N)ncnn34)C(O)C2O)Oc2ccccc2)CC1 (stereo not shown) [Example 144]	–	614 nM	65 nM	–
CC[C@H](NP(=O)(OC[C@@]1(C#N)O[C@@H](c2ccc3c(N)ncnn23)[C@H](O)[C@@H]1O)Oc1ccccc1)C(=O)OCC(C)(C)C (stereo partly drawn) [Example 157, neopentyl (2S)-2-(((((2R,3S,4R,5S)-5-(4-aminopyrrolo[2,1-f][1,2,4]triazin-7-yl)-2-cyano-3,4-dihydroxytetrahydrofuran-2-yl)methoxy)(phenoxy)phosphoryl)amino)butanoate]	972 nM	–	–	EC50 (RSV A2; [1]): 163 nM
CCC(CC)COC(=O)[C@H](C)NP1(=O)OC[C@@]2(C#N)O[C@@H](c3ccc4c(N)ncnn34)[C@H](O)[C@@H]2O1 (stereo partly drawn) [Example 169, 2-ethylbutyl ((4aR,6S,7S,7aS)-6-(4-aminopyrrolo[2,1-f][1,2,4]triazin-7-yl)-4a-cyano-7-hydroxy-2-oxidotetrahydro-4H-furo[3,2-d][1,3,2]dioxaphosphinin-2-yl)-L-alaninate]	–	–	–	EC50 (RSV strain A2; [4]): 524 nM; EC50 (RSV A2; [5]): 965 nM
C[C@H](NP(=O)(O)OC[C@@]1(C#N)O[C@@H](c2ccc3c(N)ncnn23)[C@H](O)[C@@H]1O)C(=O)OC1CCCCC1 [Example 202, cyclohexyl ((((2R,3S,4R,5S)-5-(4-aminopyrrolo[2,1-f][1,2,4]triazin-7-yl)-2-cyano-3,4-dihydroxytetrahydrofuran-2-yl)methoxy)(hydroxy)phosphoryl)-L-alaninate]	–	–	–	EC50 (RSV strain A2; [4]): 7050 nM; EC50 (RSV A2; [5]): > 2950 nM
CCOC(=O)c1ccccc1OP1(=O)OC[C@@]2(C#N)O[C@@H](c3ccc4c(N)ncnn34)[C@H](O)[C@@H]2O1 (stereo partly drawn) [Example 224, ethyl 2-(((4aR,6S,7S,7aS)-6-(4-aminopyrrolo[2,1-f][1,2,4]triazin-7-yl)-4a-cyano-7-hydroxy-2-oxidotetrahydro-4H-furo[3,2-d][1,3,2]dioxaphosphinin-2-yl)oxy)benzoate]	–	–	–	EC50 (RSV A2; [3]): 2830 nM
